From patent US11578072B2, “Spiro-lactam NMDA receptor modulators and uses thereof” (Aptinyx Inc., priority 2018, dated 2023)

Legend:
[1] = Microsomal stability (Human); assay type: in vitro ADME; conditions: human microsomes, after 60 minutes
Procedure: (§1) Microsomal stability of disclosed compounds was investigated. The following table indicates the percent of compound remaining after 60 minutes.

Sprague Dawley rats [2] = test: Porsolt forced swim test; assay type: in vivo
Procedure: A non-clinical in vivo pharmacology study (Porsolt assay) was performed to measure antidepressant-like effects. The study allowed for the evaluation of the effects of each compound on the Porsolt forced swim test as assessed by the rats' response (reduced floating time) during a 5-minute swimming test.
Male 2-3 month old Sprague Dawley rats were used (Harlan, Indianapolis, Ind.). Rats were housed in Lucite cages with aspen wood chip bedding, maintained on a 12:12 light:dark cycle (lights on at 5 AM), and given ad libitum access to Purina lab chow (USA) and tap water throughout the study.
The Porsolt forced swim test adapted for use in rats was performed as described by Burgdorf et al., (The long-lasting antidepressant effects of rapastinel (GLYX-13) are associated with a metaplasticity process in the medial prefrontal cortex and hippocampus. Neuroscience 308:202-211, 2015). Animals were placed in a 46 cm tall×20 cm in diameter clear glass tube filled to 30 cm with tap water (23±1° C.) for 15 min on the first day (habituation) and 5 min on the subsequent test day. Animals were tested 1 h or 1 week post-dosing with the test compounds or vehicle control (0.5% sodium carboxymethyl cellulose in 0.9% sterile saline). Animals received a 15 min habituation session 1 day before the first 5 min test. Water was changed after every other animal. Animals were videotaped, and floating time as defined as the minimal amount of effort required to keep the animals head above water was scored offline by a blinded experimenter with high inter-rater reliability (Pearson's r>0.9).

[3] = IV pharmacokinetics in rats; conditions: Sprague Dawley, in vivo, rat, 2 mg/kg, normal saline
Procedure: Sprague Dawley rats were dosed intravenously using a normal saline formulation containing 2 mg/kg of the compounds identified in the below table. The table below summarizes the results of the IV pharmacokinetics.

[4] = Microsomal stability (Rat); assay type: in vitro ADME; conditions: rat microsomes, after 60 minutes
Procedure: as §1

Plasma stability (Rat) = assay type: in vitro ADME; conditions: after 60 minutes
Procedure: (§2) Plasma stability of disclosed compounds was investigated. The following table indicates the percent of compound remaining after 60 minutes.

Sprague Dawley rats [5] = test: Bennett nerve injury assay (mechanical analgesia, paw withdrawal threshold); assay type: in vivo
Procedure: The Bennett model of mechanical analgesia is used to assess the analgesic effects of compounds as measured by paw withdrawal threshold. Bennett G J, Xie Y K, “A peripheral mononeuropathy in rat that produces disorders of pain sensation like those seen in man,” Pain 33:87-107, 1988. […] Vehicle animals receive the surgery and then receive vehicle rather than test compound. Animals were tested 1 hr, 24 h and 1 wk post-test compound or vehicle administration.
Male 2-3 month old Sprague Dawley rats were used. Harlan was the supplier for all studies. Rats were housed in Lucite cages with aspen wood chip bedding, maintained on a 12:12 light:dark cycle (lights on at 5 AM), and given ad libitum access to Purina lab chow (USA) and tap water throughout the study.
Rats were anesthetized using inhaled isoflurane (2.5%). Sciatic nerve chronic constriction nerve injury surgery was performed as previously described (Bennett and Xie, 1988). An incision (˜1.5 cm in length) was made with a scalpel blade dorsally through skin on the right hind limb, parallel and posterior to femur. Using a small pointed hemostat, the biceps femoris and gluteus superficialis muscles were separated. Using curved blunt forceps, the common sciatic nerve was isolated and exposed. For the mechanical analgesia studies, the whole sciatic nerve was ligated. Using hemostats/forceps and chromic gut (5-0), the nerve was loosely ligated with a square knot; 3 ligatures, 1 mm apart were placed on the nerve. […] Testing occurred approximately 2 weeks post-surgery.
During testing, rats were acclimated to the surface of a suspended wire mesh grid (1 cm×1 cm, with the wire being 0.3 cm in diameter) for 15-20 min. Starting from the smallest, each Von Frey filament was pressed perpendicularly to the plantar surface of the affected (ipsilateral) hind paw until slightly bent and then held for 6 second. If an obvious hind paw withdrawal or a flinching behavior immediately after the withdrawal of the filament was not observed, the next larger filament was used in the same manner. In case of a response, a lower filament was used. This was repeated until six responses were collected.
For all studies, animals were baselined prior to study start to test for allodynia (defined as a paw withdrawal threshold under 5). A subset of animals was tested with gabapentin (150 mg/kg, PO) to ensure at least 50% analgesia. Once it was confirmed animals were ready for study initiation, animals were balanced across groups. All study investigators were blind to treatment conditions. Animals were dosed with 0.1, 1 or 10 mg/kg of test compound via oral gavage (PO), control sets of animals were dosed with gabapentin (150 mg/kg, PO) or vehicle (0.5% Na-CMC in 0.9% sterile saline, PO). Testing occurred 1 h post-dosing with animals retested 24 hrs and 1 week post-dosing. The percent analgesia calculations for each animal were made using the following equation: % analgesia=[(log(x)−y)/((log (z)−y)]*100, where x=the paw withdrawal threshold for the drug-treated animal in grams, y=the average of the log(x) values for the vehicle treated group, and z=the paw withdrawal threshold for naïve animals in grams (historical value of 15 used). The results for Compound AD, where the percentage of analgesia is measured at 1 hour, 24 hours, and 1 week after compound administration are as follows: for 0.1 mg/kg dose: 38.7% at 1 h, 34.5% at 24 h, and 19.7% at 1 wk; for 1 mg/kg dose: 24.1% at 1 h, 26.5% at 24 h, and 13.2% at 1 wk; and for 10 mg/kg dose: 61.2% at 1 h, 45.1% at 24 h, and 39.5% at 1 wk.

Plasma stability (Human) = assay type: in vitro ADME; conditions: after 60 minutes
Procedure: as §2

## CC(C)C(=O)N1CCC2(CCCNC2=O)CC1 [Compound AD, 9-isobutyryl-2,9-diazaspiro[5.5]undecan-1-one]
[1]
  Microsomal (Human): percent of compound remaining: 100%
Sprague Dawley rats [2]; 0.00001 mg/kg, 1 wk post-dose
  % reduction in float time: 1%
  Significance vs. vehicle: No
Sprague Dawley rats [2]; 0.00001 mg/kg, 1 h post-dose
  % reduction in float time: 25%
  Significance vs. vehicle: No
Sprague Dawley rats [2]; 0.001 mg/kg, 1 wk post-dose
  % reduction in float time: 41%
  Significance vs. vehicle: No
Sprague Dawley rats [2]; 0.001 mg/kg, 1 h post-dose
  % reduction in float time: 47%
  Significance vs. vehicle: Yes
Sprague Dawley rats [2]; 0.1 mg/kg, 1 wk post-dose
  % reduction in float time: 39%
  Significance vs. vehicle: No
Sprague Dawley rats [2]; 0.1 mg/kg, 1 h post-dose
  % reduction in float time: 53%
  Significance vs. vehicle: Yes
Sprague Dawley rats [2]; 10.0 mg/kg, 1 wk post-dose
  % reduction in float time: 37%
  Significance vs. vehicle: No
Sprague Dawley rats [2]; 10.0 mg/kg, 1 h post-dose
  % reduction in float time: 39%
  Significance vs. vehicle: Yes
[3]
  AUC(0-t): 5.28 µg·h/mL
  Cmax: 3.79 µg/mL
  clearance: 0.373 L/h/kg
  half-life: 6.37 h
[3]; read-out: Vss
  Vd: 0.92 L/kg
[4]
  Microsomal (Rat): percent of compound remaining: 100%
Plasma stability (Rat)
  Plasma (Rat): percent of compound remaining: 95%
Sprague Dawley rats [5]; 0.1 mg/kg PO, 1 wk
  % analgesia: 19.7%
Sprague Dawley rats [5]; 0.1 mg/kg PO, 1 h
  % analgesia: 38.7%
Sprague Dawley rats [5]; 0.1 mg/kg PO, 24 h
  % analgesia: 34.5%
Sprague Dawley rats [5]; 1 mg/kg PO, 1 wk
  % analgesia: 13.2%
Sprague Dawley rats [5]; 1 mg/kg PO, 1 h
  % analgesia: 24.1%
Sprague Dawley rats [5]; 1 mg/kg PO, 24 h
  % analgesia: 26.5%
Sprague Dawley rats [5]; 10 mg/kg PO, 1 wk
  % analgesia: 39.5%
Sprague Dawley rats [5]; 10 mg/kg PO, 1 h
  % analgesia: 61.2%
Sprague Dawley rats [5]; 10 mg/kg PO, 24 h
  % analgesia: 45.1%
Plasma stability (Human)
  Plasma (Human): percent of compound remaining: 98%
